{"source": "patent US20120065123A1", "about": "“Synthetic Antibodies” (priority 2009, published 2012)", "key": {"pooled human transferrin": {"target": "T1, pooled human transferrin (Homo sapiens, UniProt P02787)", "T1 construct": "purchased Sigma", "T1 sequence (P02787 20-698)": "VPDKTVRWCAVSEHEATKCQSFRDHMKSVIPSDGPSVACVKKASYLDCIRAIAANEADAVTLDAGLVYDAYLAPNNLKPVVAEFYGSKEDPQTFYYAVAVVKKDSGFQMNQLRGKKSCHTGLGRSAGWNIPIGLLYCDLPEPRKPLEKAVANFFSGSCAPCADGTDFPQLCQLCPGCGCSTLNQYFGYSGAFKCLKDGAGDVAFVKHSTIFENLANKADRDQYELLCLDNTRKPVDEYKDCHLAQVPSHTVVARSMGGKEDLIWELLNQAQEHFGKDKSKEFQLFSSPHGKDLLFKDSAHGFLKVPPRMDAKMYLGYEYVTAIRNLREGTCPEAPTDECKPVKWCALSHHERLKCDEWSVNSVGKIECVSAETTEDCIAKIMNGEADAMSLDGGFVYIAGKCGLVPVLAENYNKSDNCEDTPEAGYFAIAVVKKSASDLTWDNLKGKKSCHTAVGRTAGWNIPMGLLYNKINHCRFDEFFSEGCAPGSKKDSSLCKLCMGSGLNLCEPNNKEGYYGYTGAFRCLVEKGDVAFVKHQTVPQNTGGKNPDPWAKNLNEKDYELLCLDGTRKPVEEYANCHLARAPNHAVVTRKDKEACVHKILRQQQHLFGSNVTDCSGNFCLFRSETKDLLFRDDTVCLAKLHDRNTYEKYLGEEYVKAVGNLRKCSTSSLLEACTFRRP", "assay": "High throughput SPR screening of peptides (Biacore A-100)", "format": "binding", "conditions": "purified peptide, several concentrations; read-out: KD with respect to transferrin", "description": "Peptide affinity element candidates were screened against target proteins immobilized on the SPR surface. Each target protein was modified with biotin using the following procedure: NHS-LC-LC-Biotin (Pierce Biotechnology) was re-suspended in DMSO at a concentration of 7.13 mM. Each protein was prepared in 100 mM PBS pH 7.5 at a concentration of ˜50 μM. NHS-LC-LC-Biotin was then added to the protein solution at a 3:1 or 5:1 molar ratio. The reaction was performed for 2 hours at room temperature and the protein sample was analyzed by MALDI mass spectrometry to determine the number of biotin molecules added per molecule of protein. Excess NHS-LC-LC-Biotin was removed using a 3 kDa spin filter. The target proteins for which data is shown in this example were pooled human transferrin (Sigma) and purified bovine ubiquitin.\nA Biacore A-100 Surface Plasmon Resonance (SPR) system was used to measure the binding response of each peptide to several different target proteins immobilized on a gold surface. […] Each biotinylated protein was injected over a single spot and the amount of protein captured was measured. […]\nData analysis was performed using the A-100 Evaluation software package that analyzes and filters the data using a variety of measures of quality control for each sensorgram. […] In this manner a relative measure of the specificity of binding for each peptide was determined. […]"}, "Transferrin [1]": {"target": "T2, Transferrin (Homo sapiens, UniProt P02787)", "T2 sequence (P02787 20-698)": "as above", "assay": "SPR solution phase KD of candidate affinity elements, transferrin immobilized (Biacore T100)", "format": "binding", "conditions": "steady-state response, 25° C., PBST", "description": "Transferrin 25 μg/ml in immobilization buffer selected for correct pH was then applied 302 at a flow rate of 5 to 10 μl/min for a contact time of about 5 to 10 minutes, allowing the amine functionality on the transferrin 308 to displace the activated NHS ester and bond to the surface via an amide bond. Finally, ethylene diamine (1M ethylene diamine-HCl at pH 8.5) was applied 304 at a flow rate of 5 to 10 μl/min for a contact time of about 6 to 7 minutes to deactivate any remaining reactive groups on the dextran chip surface. Flow rates and contact times are adjusted as necessary to provide the surface concentration of target desired for the intended application, and may vary by target. In general, for evaluating whether binding occurs, it is preferable to immobilize a relatively large quantity of target, and higher flow rates and/or longer contact times may be used. For determining kinetics, it is preferable to limit the amount of target immobilized so as to minimize rebinding and avidity effects, and lower flow rates and/or contact times may be used.\nCandidate affinity elements for the transferrin synbody TRF19, TRF21, TRF23, TRF24, TRF25, and TRF26 were individually evaluated for solution phase KD with respect to transferrin by SPR analysis. Because the off rates for these polypeptides were very high, KD values were estimated by measuring steady-state response for at least five concentrations in a two-fold dilution series, each concentration tested in duplicate. For each experiment, response data were processed using a reference surface to correct for bulk refractive index changes and any non-specific binding. Data were also double referenced using responses from blank running buffer injections. Each experiment was conducted at 25° C. using PBST (0.01M Phosphate Buffered Saline, 0.138M NaCl, 0.0027M KCl, 0.05% surfactant Tween20, pH 7.4) as the running buffer on a Biacore T100 instrument. Analytes were injected for 60 s at a flow rate of 30 μl/min. The antigen surfaces were regenerated with 30 s consecutive pulses of NaOH/NaCl (50 mM NaOH in 1M NaCl) and Glycine (10 mM glycine-HCl, pH 2.5)."}, "Transferrin [2]": {"target": "T2, Transferrin", "assay": "Peptide microarray ranking, labeled transferrin with E. coli lysate competitor", "format": "binding", "description": "Several polypeptides were identified as candidate affinity elements for synbodies against an arbitrarily chosen protein target, transferrin, by incubating transferrin on the polypeptide microarray in the presence of E. coli lysate competitor. Transferrin was randomly direct-labeled at free amines with Alexa™ 555, and E. coli lysate was randomly direct-labeled at free amines with Alexa™ 647. Three replicate arrays were passivized by applying a mixture of BSA and mercaptohexanol for one hour. The arrays were blocked with unlabelled E. coli lysate for one hour, then washed three times with TBST (0.05% Tween) followed by three times with water. A mixture of labeled transferrin and labeled E. coli lysate was applied to the three replicate arrays and incubated for three hours. The arrays were again washed three times with TBST (0.05% Tween) followed by three times with water, and scanned at 555 nm and 647 nm using an array reader. Polypeptides were ranked as candidates for inclusion as affinity elements of synbodies by computing a score for each polypeptide equal to the mean raw 555 nm intensity over the six replicate features, squared, divided by the mean raw 647 nm intensity over the six replicate features. This simple scoring function tends to favor candidate polypeptides that bind at least moderate affinity, since otherwise the 555 nm intensity would be relatively lower, and that are relatively specific, since otherwise the 647 nm intensity would be relatively higher and contribute to a relatively lower score. Many variations of this ranking and identification process can be used, such as, by way of non-limiting examples, two-color comparisons against other competitors; comparisons with data taken in separate experiments with respect to other targets; and use of scoring functions taking into account other factors, employing other functional relationships, and/or involving statistical analysis and/or preprocessing of data and/or correcting for background fluorescence and/or other factors affecting the accuracy of the measured intensities. Ten polypeptides (Table 1) were identified for further evaluation for use as affinity elements in synbodies by choosing the polypeptides having the highest score (one polypeptide was rejected as difficult to synthesize, so the polypeptides chosen were ten of those having the eleven highest scores).\nAfter preparation of the array in accordance with the methods previously described in Example 2, the array was washed one time for five minutes in 7.33% acetonitrile, 37% isopropanol, 0.55% trifluoroacetic acid, and 55% water. Alexa 555 labeled target protein transferrin was applied, together with Alexa 647 labeled E. coli lysate competitor, to the prewashed array and to an identical array without organic prewash. […] 5,010 on the array without organic prewash, but ranked no. 9601 on the prewashed array. Conversely, peptide TRF-21, shown by SPR analysis to be a relatively strong binder of transferrin, rose in rank from 84 on the non-prewashed array to rank no. 5 on the prewashed array."}, "Transferrin [3]": {"target": "T2, Transferrin", "assay": "SPR analysis of peptide pairs for binding to distinct sites on target", "conditions": "peptides applied in 1:1 mixtures in pairs", "description": "The transferrin target was immobilized on a Biacore T100 SPR chip, and candidate polypeptides were applied in 1:1 mixtures in pairs and response data obtained, in accordance with the methods described in Example 4 above. As illustrated in FIGS. 12A-D, upon flowing candidate polypeptides over the immobilized target, ideally one polypeptide applied alone would bind to a first binding site on the target and produce a first characteristic SPR response level (FIG. 12A), the other polypeptide would bind to a second, distinct binding site on the target, producing a second characteristic response level (FIG. 12B), and a mixture of the two polypeptides together (at the same concentrations as before) would produce a response level approximating the sum of the response levels produced by each polypeptide alone, as the polypeptides bind to distinct binding sites (FIG. 12C)."}, "[4]": {"system": "8,000 human proteins (GST fusion)", "assay": "Protein microarray screen (Invitrogen Protoarray Human Protein Microarray, 8,000 features)", "format": "binding", "conditions": "fluorescence intensity", "description": "Two biotinylated anti-TRF synbodies (SYN23-26 and SYN 21-22) were applied to a protein microarray having 8,000 features (Invitrogen Protoarray Human Protein Microarray v. 4.0 for immune response biomarker profiling), each feature comprising a distinct human protein (GST fusion) adsorbed to a nitrocellulose coated slide. Application of the synbodies to the microarray was performed in accordance with manufacturer instructions: (see ProtoArray Human Protein Microarray, Invitrogen, Catalog no. PAH052401, Version B, 15 Dec. 2006, 25-0970, Users Manual.) After blocking the array with 1% BSA/PBS/0.1% Tween for 1 hour at 4C with gentle shaking, 120 μl of probing buffer (1×PBS, 5 mM mgCl2, 0.5 mM DTT, 0.05% Triton X-100, 5% glycerol, 1% BSA) with synbody was applied to the array. The prescribed cover slip was placed over the array and adjusted to remove air bubbles. The array was incubated in a 50 ml conical tube, printed side up, for 1.5 hours at 4C without shaking. The array was then removed from the conical tube inserted diagonally into the array chamber, kept on ice. 8 ml probing buffer was added to the chamber wall. The cover slip was removed and the array was incubated in probing buffer for 1 minute on ice. […] The array was dried in the dark for 60 minutes at room temperature, after which it was scanned using a fluorescent microarray scanner and data was taken and analyzed."}, "TNF-α": {"target": "TNF-α (Homo sapiens, UniProt P01375)", "sequence (P01375 77-233 limits assumed, species assumed)": "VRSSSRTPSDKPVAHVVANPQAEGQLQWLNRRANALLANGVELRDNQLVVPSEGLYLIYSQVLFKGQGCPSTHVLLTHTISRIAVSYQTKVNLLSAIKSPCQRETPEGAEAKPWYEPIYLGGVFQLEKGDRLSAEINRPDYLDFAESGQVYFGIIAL", "assay": "SPR verification of candidate TNF-α binding synbodies (Biacore T-100)", "conditions": "1.25 μM to 9.8 nM", "description": "Candidate TNF-α binding synbodies were screened by surface plasmon resonance (SPR) on a Biacore T-100 SPR instrument to verify binding for TNF-α. A CM5 chip was activated using standard amine coupling chemistry and TNF-α was immobilized. Each synbody was prepared in HBS-N buffer with excess carboxymethyl dextran added to the running buffer to minimize non-specific binding to the chip surface. A concentration series of each synbody was prepared where the concentrations ranged from 1.25 μM to 9.8 nM."}, "[5]": {"target": "Tumor Necrosis Factor-alpha (TNF-α) (Homo sapiens, UniProt P01375)", "sequence (P01375 77-233 limits assumed, species assumed)": "as above", "assay": "Chromatographic affinity screening on protein-coupled pipette tips with MALDI readout", "format": "binding", "conditions": "500 nM each synbody in E. Coli Lysate", "description": "The target proteins, Transferrin (TRF) and Tumor Necrosis Factor-alpha (TNF-α), were each covalently attached to pipette tips (one protein per pipette tip) containing carboxymethyl dextran matrix (Intrinsic Bioprobes, Tempe, Ariz.) using standard amine coupling chemistry. The unmodified tips were first washed with 0.5 M HCl followed by acetone. Each tip was activated using a 50 mg/mL solution of […] (CDI) in N-methyl-pyrolidone (NMP). Each tip was washed with NMP to remove excess CDI. Each protein was prepared as a 50 μg/mL solution in 100 mM sodium acetate pH 5.0 and cycled through a CDI activated tip for 30 minutes. Un-reacted CDI in the tip was then quenched with the addition of 1.5 M ethanolamine pH 8.5 and then washed extensively with HBS-N buffer. The protein-coupled tips were then stored in HBS-N buffer at 4° C. Negative control tips were prepared in the same manner except that no protein was added to the sodium acetate solution during the protein coupling step.\nA library of 14 candidate synbodies (Table 9) was prepared by making 12 μM stock solutions in 1× phosphate buffered saline (PBS) of each HPLC purified synbody and […] of each stock solution was added to 600 μL of E. Coli Lysate that had been treated with a protease inhibitor. Thus the final concentration of each synbody was 500 nM.\nA negative control pipette tip (blank tip), a TRF tip, and a TNF-α tip, were washed with 0.1% sodium dodecyl sulfate (SDS) to remove any non-covalently bound protein and then washed with HBS buffer. The tips were then incubated for 15 minutes in 150 μL of the synbody library. Each tip was then washed 5 times in 150 μL of HBS-N. This step was then repeated and each tip was washed 5 times in 150 μL of 0.25 M NaCl. Each tip was then washed 5 times in 150 μL of Milli-Q water and this step was repeated. […]\nEach elution sample was spotted onto a MALDI plate and analyzed in reflectron mode on a Bruker Daltonics UltraFlex III TOF/TOF MALDI Mass Spectrometer."}}, "note": "Bridges are numbered along the chain shown (N, C = ends). Roman numbers before positions name the chains, in order. Where no end group is shown, it is not given here. The star is where a group is joined. StBu = CC(C)(C)S*"}
{"substance": "ARDLLIQKNSGQDVDHRGSC [TRF101]", "values": [{"measurement": "Kd", "setting": "pooled human transferrin", "result": "78.9 ± 27", "unit": "µM"}]}
{"substance": "FRGWAHIFFGPHVIYRGGSC [TRF23]", "values": [{"measurement": "Kd", "setting": "Transferrin [1]", "result": "~50", "unit": "µM"}, {"measurement": "Rank -- prewash", "setting": "Transferrin [2]; array with organic prewash", "result": 2091}, {"measurement": "Rank - non-prewash", "setting": "Transferrin [2]; array without organic prewash", "result": 2722}, {"measurement": "binding to distinct sites on transferrin", "setting": "Transferrin [3]", "result": "bind distinct sites on transferrin"}]}
{"substance": "I: AHKVVPQRQIRHAYNRYGSGKC / II: FRGWAHIFFGPHVIYRGGSG (amide I:21-II:C) [SYN23-26]", "values": [{"measurement": "highest affinity target from a library of 8,000", "setting": "[4]", "result": "PCCA"}]}
{"substance": "TNF1-TNF4-KC-stBu: lysine-linked synbody (peptide 1 FMNYPIKVPILVVPIGRGSGKC(StBu); peptide 2 MKSIIPMSVAQHQGPIKGSG; not fully specified)", "values": [{"measurement": "binding to TNF-α (sensorgrams)", "setting": "TNF-α", "result": "no binding"}, {"measurement": "MALDI peak in TNF-α tip elution (retention by target)", "setting": "[5]", "result": "no peak was observed"}]}
{"substance": "TNF1-TNF10-KC-stBu: lysine-linked synbody (peptide 1 FRGWAHIFFGPHVIYRGGSGKC(StBu); peptide 2 MKSIIPMSVAQHQGPIKGSG; not fully specified)", "values": [{"measurement": "binding to TNF-α (sensorgrams)", "setting": "TNF-α", "result": "relatively strong binding kinetics"}, {"measurement": "MALDI peak in TNF-α tip elution (retention by target)", "setting": "[5]", "result": "showed a peak"}]}
